From US20260078120A1, “SUBSTITUTED PYRIDOPYRIMIDINONES” (MIRATI THERAPEUTICS, INC., priority 2022, published 2026) come the findings set out here.

The test system of assay [1] is T47D (PI3Kα H1047R mutant) cells. Kind of assay: CellTiter-Glo 2.0 luminescent cell viability assay, 72 hours, T47D cells. The assay is classed as cell-based. The settings on record: Homo sapiens, T47D, 72 h, T47D (PI3Kα H1047R mutant) cells, CellTiter-Glo, approximately 72 hours; read-out: T47D (H1047R mutant) Viability IC50. In short, it runs like this: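 Viability was measured by CellTiter-Glo 2.0 luminescence after approximately 72 h of compound exposure at 37° C. Plating was 1000 cells per well the day before dosing, with ten 1:4 dilutions from a 10 µM top concentration. Values as percent of vehicle were fitted by variable-slope log(inhibitor) regression to give IC50.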
A general note: In ATP-based viability assays light output follows the ATP content of the culture.

The test system of assay [2] is SKBR3 (PI3Kα wild type) cells. The assay can be described thus: CellTiter-Glo 2.0 luminescent cell viability assay, 72 hours, SKBR3 cells. To be noted: Homo sapiens, SK-BR-3, 72 h, SKBR3 (PI3Kα wild type) cells, CellTiter-Glo, approximately 72 hours; read-out: SKBR3 (WT) Viability IC50. The assay is classed as cell-based. In short, it runs like this: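 Viability measured via CTG luminescence following roughly 72 hours of compound exposure at 37° C. Dosing used a 10 um starting concentration diluted 1:4 over 10 points; percent-of-vehicle data fitted with a variable-slope four-parameter model for IC50.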

Regarding `Cc1cc([C@@H](C)Nc2ccccc2C(=O)O)c2nc(N3CCn4cc(C(F)(F)F)nc4C3)c(C)c(=O)n2c1` [Example 11-433, (R)-2-((1-(3,7-dimethyl-4-oxo-2-(2-(trifluoromethyl)-5,6-dihydroimidazo[1,2-a]pyrazin-7(8H)-yl)-4H-pyrido[1,2-a]pyrimidin-9-yl)ethyl)amino)benzoic acid], the IC50 is 3.01 µM in assay [1] and more than 10 µM in assay [2].

As to `Cc1cc([C@@H](C)Nc2ccccc2C(=O)O)c2nc(N3CCC(n4ccc(C(F)(F)F)n4)CC3)c(C)c(=O)n2c1` [Example 10-104, (R)-2-((1-(3,7-dimethyl-4-oxo-2-(4-(3-(trifluoromethyl)-1H-pyrazol-1-yl)piperidin-1-yl)-4H-pyrido[1,2-a]pyrimidin-9-yl)ethyl)amino)benzoic acid], the values for the IC50 in assay [1] and in assay [2] were 0.0878 µM and more than 10 µM, respectively.

On to `Cc1cc([C@@H](C)Nc2ccccc2C(=O)O)c2nc(N3CCN(C(=O)c4ccccc4)CC3)c(C#N)c(=O)n2c1` [Example 11-263, (R)-2-((1-(2-(4-benzoylpiperazin-1-yl)-3-cyano-7-methyl-4-oxo-4H-pyrido[1,2-a]pyrimidin-9-yl)ethyl)amino)benzoic acid], for which the values for the IC50 in assay [1] and in assay [2] were 1.29 µM and more than 10 µM, respectively.

Regarding `Cc1cc(C(C)Nc2ccccc2)c2nc(N3CCOCC3)cc(=O)n2c1` (stereo not drawn) [Example 11-421, 7-methyl-2-morpholino-9-(1-(phenylamino)ethyl)-4H-pyrido[1,2-a]pyrimidin-4-one], the IC50 in assay [1] and in assay [2] was more than 10 µM in each case.

For the compound `Cc1cc([C@@H](C)Nc2ccccc2C(=O)O)c2nc(N3C[C@@H]4C[C@H]3CC4(F)F)c(C)c(=O)n2c1` [Example 11-231, 2-(((R)-1-(2-((1S,4S)-5,5-difluoro-2-azabicyclo[2.2.1]heptan-2-yl)-3,7-dimethyl-4-oxo-4H-pyrido[1,2-a]pyrimidin-9-yl)ethyl)amino)benzoic acid], the IC50 in assay [1] is 0.192 µM; in assay [2] it was more than 10 µM.

As for `Cc1cc([C@@H](C)Nc2ccccc2C(=O)O)c2nc(N3CC4(CCC4(F)F)C3)c(C#N)c(=O)n2c1` [Example 11-200, (R)-2-((1-(3-cyano-2-(5,5-difluoro-2-azaspiro[3.3]heptan-2-yl)-7-methyl-4-oxo-4H-pyrido[1,2-a]pyrimidin-9-yl)ethyl)amino)benzoic acid], the values for the IC50 in assay [1] and in assay [2] were 0.129 µM and more than 10 µM, respectively.

Turning to `Cc1cc([C@@H](C)Nc2ccccc2C(=O)O)c2nc(N3C4CC5CC(C4)CC3C5)c(C)c(=O)n2c1` [Example 11-29, (R)-2-((1-(2-(2-azaadamantan-2-yl)-3,7-dimethyl-4-oxo-4H-pyrido[1,2-a]pyrimidin-9-yl)ethyl)amino)benzoic acid], the values for the IC50 in assay [1] and in assay [2] were 0.244 µM and more than 10 µM, respectively.

As to `Cc1cc([C@@H](C)Nc2ccccc2C(=O)O)c2nc(N3CCN(c4ccc(C(F)(F)F)cc4C#N)C[C@@H]3C)c(C#N)c(=O)n2c1` [Example 11-77, 2-(((R)-1-(3-cyano-2-((S)-4-(2-cyano-4-(trifluoromethyl)phenyl)-2-methylpiperazin-1-yl)-7-methyl-4-oxo-4H-pyrido[1,2-a]pyrimidin-9-yl)ethyl)amino)benzoic acid], the IC50 in assay [1] was 0.552 µM; in assay [2], more than 10 µM.

On to `Cc1cc([C@@H](C)Nc2ccccc2C(=O)O)c2nc(N3CCC(C#N)CC3)c(C#N)c(=O)n2c1` [Example 11-72, (R)-2-((1-(3-cyano-2-(4-cyanopiperidin-1-yl)-7-methyl-4-oxo-4H-pyrido[1,2-a]pyrimidin-9-yl)ethyl)amino)benzoic acid], for which the results for the IC50 in assay [1] and in assay [2] were 0.441 µM and more than 10 µM, respectively.

For the compound `CCC(Nc1ccccc1C(=O)O)c1cc(C)cn2c(=O)cc(N3CCCCC3)nc12` (stereo not drawn) [Example 11-411, 2-((1-(7-methyl-4-oxo-2-(piperidin-1-yl)-4H-pyrido[1,2-a]pyrimidin-9-yl)propyl)amino)benzoic acid], the IC50 in assay [1] and in assay [2] was more than 10 µM throughout.

Turning to `Cc1cc([C@@H](C)Nc2ccccc2C(=O)O)c2nc(N3C4CCC3c3ccccc34)c(C#N)c(=O)n2c1` [Example 11-214, 2-(((1R)-1-(3-cyano-7-methyl-4-oxo-2-(1,2,3,4-tetrahydro-1,4-epiminonaphthalen-9-yl)-4H-pyrido[1,2-a]pyrimidin-9-yl)ethyl)amino)benzoic acid], the IC50 in assay [1] is 0.262 µM; in assay [2], more than 10 µM.

Turning to `Cc1cc([C@@H](C)Nc2ccccc2C(=O)O)c2nc(N3CCc4scnc4C3)c(C#N)c(=O)n2c1` [Example 11-306, (R)-2-((1-(3-cyano-2-(6,7-dihydrothiazolo[4,5-c]pyridin-5(4H)-yl)-7-methyl-4-oxo-4H-pyrido[1,2-a]pyrimidin-9-yl)ethyl)amino)benzoic acid], the IC50 was 0.557 µM in assay [1] and more than 10 µM in assay [2].

With `Cc1cc([C@@H](C)Nc2ccccc2C(=O)O)c2nc(N3CC(C)C(F)(F)C3)c(C)c(=O)n2c1` (stereo partly drawn) [Example 11-121, 2-(((1R)-1-(2-(3,3-difluoro-4-methylpyrrolidin-1-yl)-3,7-dimethyl-4-oxo-4H-pyrido[1,2-a]pyrimidin-9-yl)ethyl)amino)benzoic acid], the 50% inhibitory concentration (IC50) amounted to 0.06 µM in assay [1] and 5.22 µM in assay [2].

In the case of `Cc1cc([C@@H](C)Nc2ccccc2C(=O)O)c2nc(N3CCC(C#N)CC3)c(C)c(=O)n2c1` [Example 11-73, (R)-2-((1-(2-(4-cyanopiperidin-1-yl)-3,7-dimethyl-4-oxo-4H-pyrido[1,2-a]pyrimidin-9-yl)ethyl)amino)benzoic acid], the IC50 is 0.272 µM in assay [1] and more than 10 µM in assay [2].

Consider `Cc1cc([C@@H](C)Nc2ccccc2C(=O)O)c2nc(N3CCC(C)CC3)c(C#N)c(=O)n2c1` [Example 11-314, (R)-2-((1-(3-cyano-7-methyl-2-(4-methylpiperidin-1-yl)-4-oxo-4H-pyrido[1,2-a]pyrimidin-9-yl)ethyl)amino)benzoic acid], for which the figures for the IC50 in assay [1] and in assay [2] were 0.146 µM and more than 10 µM, respectively.

As for `Cc1cc([C@@H](C)Nc2ccccc2C(=O)O)c2nc(N3CC(c4cc(C(F)(F)F)on4)C3)c(C)c(=O)n2c1` [Example 11-442, (R)-2-((1-(3,7-dimethyl-4-oxo-2-(3-(5-(trifluoromethyl)isoxazol-3-yl)azetidin-1-yl)-4H-pyrido[1,2-a]pyrimidin-9-yl)ethyl)amino)benzoic acid], the IC50 in assay [1] was 0.871 µM; in assay [2], more than 10 µM.

Take `Cc1cc([C@@H](C)Nc2ccncc2C(=O)O)c2nc(N3Cc4ccccc4C3)c(C)c(=O)n2c1` [Example 11-275, (R)-4-((1-(2-(isoindolin-2-yl)-3,7-dimethyl-4-oxo-4H-pyrido[1,2-a]pyrimidin-9-yl)ethyl)amino)nicotinic acid]: the IC50 in assay [1] and in assay [2] was more than 10 µM each time.

As for `Cc1cc([C@@H](C)Nc2ccccc2C(=O)O)c2nc(N3CCN(c4ccccc4C#N)C[C@@H]3C)c(C)c(=O)n2c1` [Example 11-82, 2-(((R)-1-(2-((S)-4-(2-cyanophenyl)-2-methylpiperazin-1-yl)-3,7-dimethyl-4-oxo-4H-pyrido[1,2-a]pyrimidin-9-yl)ethyl)amino)benzoic acid], the values for the IC50 in assay [1] and in assay [2] were 0.303 µM and more than 10 µM, respectively.

Regarding `Cc1c(N2CCC(F)(F)CC2)nc2c([C@@H](C)Nc3ccccc3C(=O)O)cc(C(F)F)cn2c1=O` [Example 11-171, (R)-2-((1-(7-(difluoromethyl)-2-(4,4-difluoropiperidin-1-yl)-3-methyl-4-oxo-4H-pyrido[1,2-a]pyrimidin-9-yl)ethyl)amino)benzoic acid], the results for the IC50 in assay [1] and in assay [2] were 0.227 µM and more than 10 µM, respectively.

For the compound `Cc1cc([C@@H](C)Nc2ccccc2C(=O)O)c2nc(C3CC3)c(C#N)c(=O)n2c1` [Example 11-244, (R)-2-((1-(3-cyano-2-cyclopropyl-7-methyl-4-oxo-4H-pyrido[1,2-a]pyrimidin-9-yl)ethyl)amino)benzoic acid], the IC50 was 0.116 µM in assay [1] and more than 10 µM in assay [2].

For `Cc1cc(C(C)Nc2ccc(F)nc2C(=O)O)c2nc(N3Cc4ccccc4C3)c(C)c(=O)n2c1` (stereo not drawn) [Example 11-352, 6-fluoro-3-((1-(2-(isoindolin-2-yl)-3,7-dimethyl-4-oxo-4H-pyrido[1,2-a]pyrimidin-9-yl)ethyl)amino)picolinic acid], the IC50 in assay [1] is 0.0747 µM; in assay [2] it was more than 10 µM.

With `Cc1cc([C@@H](C)Nc2ccccc2C(=O)O)c2nc(N3CCC4(CCC(O)C4)CC3)c(C)c(=O)n2c1` (stereo partly drawn) [Example 10-143, 2-(((1R)-1-(2-(2-hydroxy-8-azaspiro[4.5]decan-8-yl)-3,7-dimethyl-4-oxo-4H-pyrido[1,2-a]pyrimidin-9-yl)ethyl)amino)benzoic acid], the IC50 in assay [1] was 0.0831 µM; in assay [2], more than 10 µM.

Regarding `Cc1cc(C(C)Nc2ccccc2C(=O)O)c2nc(N3CCc4cnn(C)c4C3)cc(=O)n2c1` (stereo not drawn) [Example 11-382, 2-((1-(7-methyl-2-(1-methyl-1,4,5,7-tetrahydro-6H-pyrazolo[3,4-c]pyridin-6-yl)-4-oxo-4H-pyrido[1,2-a]pyrimidin-9-yl)ethyl)amino)benzoic acid], the concentration for half-maximal inhibition (IC50) in assay [1] is 4.32 µM; in assay [2], more than 10 µM.

Consider `Cc1cc([C@@H](C)Nc2ccccc2C(=O)O)c2nc(N3CCN(c4cccc(C#N)c4)C[C@@H]3C)c(C)c(=O)n2c1` [Example 11-86, 2-(((R)-1-(2-((S)-4-(3-cyanophenyl)-2-methylpiperazin-1-yl)-3,7-dimethyl-4-oxo-4H-pyrido[1,2-a]pyrimidin-9-yl)ethyl)amino)benzoic acid], for which the values for the IC50 in assay [1] and in assay [2] were 0.146 µM and more than 10 µM, respectively.

As usually defined, the IC50 is the concentration needed to halve the response being measured.
